Data on 15 compounds can be found in PMC9916857, “Triterpenoids from Kochiae Fructus: Glucose Uptake in 3T3-L1 Adipocytes and α-Glucosidase Inhibition, In Silico Molecular Docking” (International Journal of Molecular Sciences, 2023).

“Also recorded” adds a separate entry of the source. Marks after values point to notes of the source that are not given here.

For series [1], the target named is α-glucosidase. The experiment in a line: In vitro α-glucosidase inhibition assay (pNPG substrate). The class given is biochemical. Conditions: for IC50: mean ± SD, n = 3; for Inhibitory Rate (%): mean ± SD (n = 3). How it is done: The α-glucosidase inhibition assay was carried out on the basis of the method reported by Zhang et al., with minor modifications. […] […] To initiate the reaction, pNPG (40 μL) was added to the reaction mixture and incubated at 37 °C for 30 min. The reaction was terminated by adding 20 μL of Na2CO3, after which the absorbance was determined at 405 nm by a microplate reader (SpectraMax190, Micro-g Biotech, Guangzhou, China).

Series [2] deals with α-glucosidase. The experiment in a line: Kinetics of α-glucosidase inhibition (Lineweaver–Burk and Dixon plots). The class given is biochemical. Conditions: for Ki: Dixon plot, 1/v versus [I], read-out: Ki (inhibitor binding to α-glucosidase); for Inhibition type: Lineweaver–Burk and Dixon plots; for Change of Km and Vmax with increased concentration of inhibitor: Lineweaver–Burk plot. As to the method:
(§1) The kinetic analysis of compounds 3, 9, and 13 were measured using the reaction conditions in Section 3.6. Typically, three different concentrations of each compound around the IC50 values were chosen. Under each concentration, α-glucosidase activity was assayed by varying the concentration of pNPG as a substrate. […] Ki and Ki’ values were determined from 1/v versus [I] (Dixon plot) and S/v versus [I] plots, respectively.

In series [3] the target is α-glucosidase−pNPG complex. Briefly: Kinetics of α-glucosidase inhibition, S/v versus [I] plot (Ki’). The series is classed as biochemical. How it is done: as §1
In series [4] the test system is 3T3-L1 adipocytes. The experiment in a line: Insulin-induced glucose uptake assay in 3T3-L1 adipocytes. The class given is cell-based, murine. How it is done: (§2) The murine 3T3-L1 preadipocytes were supplied by the American Type Culture Collection (ATCC, Manassas, VA, USA). The cells were cultured in high-glucose DMEM supplemented with 10% (v/v) newborn calf serum (NBCS), 1% (v/v) Pen-Strep solution (P/S) at 37 °C in a humidified atmosphere of 5% CO2, and then starved until the cells reached confluence (day 0). Two days later (day 2), the cells were cultured in DMEM supplemented with 10% (v/v) fetal bovine serum (FBS), 1% (v/v) P/S, 0.5 mM 3-isobutyl-1-methylxanthine (IBMX), 1 μM dexamethasone (DEX), 1 μM rosiglitazone (ROSI) and 100 nM insulin. Three days after (day 5) the induction, the culture medium was replaced with DMEM containing 10% (v/v) FBS, 1% (v/v) P/S, and 100 nM insulin for one day (day 6). Then the cells were completely differentiated into mature adipocytes (Figure 11).
The mature adipocytes were inoculated in a 96-well plate at 5 × 10^4 cells per well for 24 h. The 3T3-L1 adipocytes were divided into model groups (blank control), insulin group (250 ng/mL, positive control), and sample group (20 μM). […] The absorbance value was detected by a microplate reader at 505 nm. The glucose uptake rate was calculated as follows:Glucose uptake rate (%) = [1 − A2/A1] × 100(1) where A1 is the absorbance of the mixed-glucose, DMEM-supplemented control, and A2 is the absorbance of the blank, insulin, or sample group.

Series [5] concerns 3T3-L1 adipocytes. The experiment in a line: Cell viability (CellTiter 96 AQueous One Solution) after the glucose uptake experiment. The class given is cell-based, murine. To be noted: compounds at 20 μM, compared to the control group. How it is done:
as §2, with “Then the cells were completely differentiated into mature adipocytes (Figure 11).” left out
Cell viability was detected by using a CellTiter 96® AQueous One Solution Cell Proliferation Assay (Promega Corporation, Madison, WI, USA) according to the manufacturer’s instructions after the glucose uptake experiment. CellTiter 96® AQueous One Solution Cell Proliferation Assay reagent (20 µL/well) was added to the plate and incubated at 37 °C for 180 min before absorbance was measured at 490 nm, and the relative cell viability was calculated as follows:Relative cell viability (%) = A1/A2 × 100(2) where […].

[6] abbreviates: percent inhibition at a concentration of 50 μM.

Compound `CCOC(=O)C1OC(OC2CCC3(C)C(CCC4(C)C3CC=C3C5CC(C)(C)CCC5(C(=O)O)CCC34C)C2(C)C)C(O)C(OC2OCC(O)C(O)C2O)C1O` (centres unmarked) [Compound 6, momordin Ic ethyl ester] yielded an IC50 in series [1] above 50 µM. Further, the “Inhibitory Rate (%)” value in series [1] (setting [6]) is reported as 35.00 ± 0.40 ^h %.

As for `CC1(C)CC[C@]2(C(=O)O)CC[C@]3(C)C(=CC[C@@H]4[C@@]5(C)CC[C@H](O)[C@@](C)(C(=O)O)[C@@H]5CC[C@]43C)[C@@H]2C1` [Compound 11, gypsogenic acid], the IC50 in series [1] is above 50 µM. In addition, the “Inhibitory Rate (%)” value in series [1] (setting [6]) is on record as 53.98 ± 1.65 ^e %.

In turn, `CC1(C)CC[C@]2(C(=O)O)CC[C@]3(C)C(=CC[C@@H]4[C@@]5(C)CC[C@H](O[C@@H]6O[C@H](C(=O)O)[C@@H](O)[C@H](O[C@@H]7OC[C@@H](O)[C@H](O)[C@H]7O)[C@H]6O)C(C)(C)[C@@H]5CC[C@]43C)[C@@H]2C1` [Compound 4, momordin Ic] showed an IC50 in series [1] above 50 µM. Moreover, the “Inhibitory Rate (%)” value in series [1] (setting [6]) is 26.28 ± 1.01 ^i %.

Take `CC1(C)CC[C@]2(C(=O)O[C@@H]3O[C@H](CO)[C@@H](O)[C@H](O)[C@H]3O)CC[C@]3(C)C(=CC[C@@H]4[C@@]5(C)CC[C@H](O[C@@H]6O[C@H](C(=O)O)[C@@H](O)[C@H](O[C@@H]7OC[C@@H](O)[C@H](O)[C@H]7O)[C@H]6O)C(C)(C)[C@@H]5CC[C@]43C)[C@@H]2C1` [Compound 7, momordin IIc]: in series [1], the IC50 was above 50 µM. Besides, in series [1] (setting [6]), the “Inhibitory Rate (%)” value was 52.71 ± 0.85 ^f %.

`CC1(C)C=C2C3CCC4[C@@]5(C)CC[C@H](O[C@@H]6O[C@H](CO)[C@@H](O)[C@H](O)[C@H]6O)C(C)(C)C5CC[C@@]4(C)[C@]3(C)CC[C@@]2(C(=O)O)CC1` (stereo partly drawn) [Compound 14, (3β)-3-(β-D-glucopyranosyloxy)olean-18-en-28-oic acid] yielded an IC50 in series [1] above 50 µM. Also, in series [1] (setting [6]), the “Inhibitory Rate (%)” value is given as 17.49 ± 4.45 ^j %.

Turning to `CC1(C)CCC2(C(=O)OC3OC(CO)C(O)C(O)C3O)CCC3(C)C(=CCC4C5(C)CCC(OC6OC(C(=O)O)C(O)C(OC7OCC(O)C(O)C7O)C6OC6OC(CO)C(O)C(O)C6O)C(C)(C)C5CCC43C)C2C1` [Compound 9, 2’-O-β-D-glucopyranosyl momordin IIc], the IC50 in series [1] amounted to 4.29 ± 0.52 µM. Besides, in series [1] (setting [6]), the “Inhibitory Rate (%)” value is 74.41 ± 1.02 ^b %. For the same compound, in series [2], the Ki was determined as 48.88 ± 0.07 µM; the Inhibition type entry is on record as “mixed-type”; the “Change of Km and Vmax with increased concentration of inhibitor” value was “both the Km and Vmax values decreased”. Moreover, in series [3], the “Ki’ (inhibitor binding to the α-glucosidase−pNPG complex)” value worked out at 19.52 ± 0.26 μM.

In the case of `CC1(C)CCC2(C(=O)OC3OC(CO)C(O)C(O)C3O)CCC3(C)C(=CCC4C5(C)CCC(O)C(C)(C)C5CCC43C)C2C1` [Compound 12, oleanolic acid 28-O-β-D-glucopyranosyl ester], the “Inhibitory Rate (%)” value in series [1] (setting [6]) is reported as 41.48 ± 1.66 ^g %.

Take `COC(=O)C1OC(OC2CCC3(C)C(CCC4(C)C3CC=C3C5CC(C)(C)CCC5(C(=O)O)CCC34C)C2(C)C)C(O)C(OC2OCC(O)C(O)C2O)C1O` (centres unmarked) [Compound 5, momordin Ic 6’-methyl ester]: in series [1], the IC50 is above 50 µM. Moreover, in series [1] (setting [6]), the “Inhibitory Rate (%)” value is listed as 29.62 ± 2.26 ^i %.

For the compound insulin, in series [4] (insulin at 250 ng/mL (positive control), p < 0.001 versus control group), the “Effect on glucose uptake” value is given as “significantly promote”.

Regarding `CC1(C)CCC2(C(=O)OC3OC(CO)C(O)C(O)C3O)CCC3(C)C(=CCC4C5(C)CC(O)C(O)C(C)(C)C5CCC43C)C2C1` [Compound 3, 2β,3β-dihydroxyolean-12-en-28-oic acid 28-O-β-D-glucopyranoside], it took 23.5 ± 3.37 µM to reach half-maximal inhibition in series [1] (IC50). In series [1] (setting [6]), the “Inhibitory Rate (%)” value is reported as 59.79 ± 1.04 ^d %. Further, in series [2], the Ki was found to be 56.9 ± 1.23 µM; the Inhibition type entry is recorded as “mixed-type”; the “Change of Km and Vmax with increased concentration of inhibitor” value was “Vmax values decreased and the Km values increased”. Besides, in series [3], the “Ki’ (inhibitor binding to the α-glucosidase−pNPG complex)” value is 47.89 ± 1.37 μM.

For the compound `C[C@H]1O[C@H](O[C@H]2[C@H](O)[C@@H](O)[C@@H](O[C@H]3[C@H](O)[C@@H](O)C(O)O[C@@H]3CO)O[C@@H]2CO)[C@H](O)[C@@H](O)[C@@H]1N[C@H]1C=C(CO)[C@@H](O)[C@H](O)[C@H]1O` (some centres unmarked) [Acarbose, acarbose, reference compound], the “Inhibitory Rate (%)” value in series [1] (percent inhibition at a concentration of 0.012 μM) is listed as 87.04 ± 0.29 ^a %.

Consider `CC1(C)CC2C3=CCC4[C@@]5(C)CC[C@H](O)C(C)(C)C5CC[C@@]4(C)[C@]3(C)CC[C@@]2(C(=O)O)[C@H](O)C1` (some centres unmarked) [Compound 13], for which, in series [4] (compound at 20 μM, 24 h, p < 0.001 versus model group), the “Effect on glucose uptake” value is “potent effect; also recorded: strong effect; also recorded: significant promotion”. The “Cell viability / cytotoxicity” value in series [5] is reported as “without inhibitory effects on cell viability”. The midpoint of inhibition in series [1], the IC50, lay at 17 ± 2.7 µM. For the same compound, in series [1] (setting [6]), the “Inhibitory Rate (%)” value was 69.91 ± 0.59 ^c %. Further, in series [2], the inhibition constant (Ki) stood at 13.6 ± 0.42 µM; the Inhibition type result is “mixed-type”; the “Change of Km and Vmax with increased concentration of inhibitor” value is “both the Km and Vmax values decreased”. For the same compound, the “Ki’ (inhibitor binding to the α-glucosidase−pNPG complex)” value in series [3] is given as 8.82 ± 0.06 μM.

In series [1], `COC(=O)C1OC(OC2CCC3(C)C(CCC4(C)C3CC=C3C5CC(C)(C)CCC5(C(=O)OC5OC(CO)C(O)C(O)C5O)CCC34C)C2(C)C)C(O)C(OC2OCC(O)C(O)C2O)C1O` (centres unmarked) [Compound 8, momordin IIc 6’-methyl ester] gave an IC50 above 50 µM. Moreover, the “Inhibitory Rate (%)” value in series [1] (setting [6]) is 57.02 ± 36.3 ^e %.

In turn, `CC1(C)CCC2(C(=O)O)CCC3(C)C(=CCC4C5(C)CCC(OC6OC(C(=O)O)C(O)C(OC7OCC(O)C(O)C7O)C6O)C(C)(C(=O)O)C5CCC43C)C2C1` [Compound 1, 3(β)-3-O-β-D-xylopyranosly(1→3)-β-D-glucopyranosiduronic acid-12-en-23,28-dioic acid] displayed an IC50 in series [1] above 50 µM. Besides, the “Inhibitory Rate (%)” value in series [1] (setting [6]) was 13.71 ± 0.54 ^j %.

As for `COC(=O)C1OC(OC2CCC3(C)C(CCC4(C)C3CC=C3C5CC(C)(C)CCC5(C(=O)O)CCC34C)C2(C)C(=O)O)C(O)C(OC2OCC(O)C(O)C2O)C1O` [Compound 2, 3(β)-3-O-β-D-xylopyranosly(1→3)-β-D-glucopyranosiduronic acid 6-methyl ester-12-en-23,28-dioic acid], the IC50 in series [1] was above 50 µM. In addition, in series [1] (setting [6]), the “Inhibitory Rate (%)” value was 14.05 ± 4.90 ^j %.

As usually defined, the IC50 is the concentration at which inhibition is half-maximal. The low end stands for greater potency in that assay, the high end for weaker potency in that assay. A word on the Ki: it is a dissociation constant, usually derived from enzyme kinetics or from competition with a known ligand.
